Experimental findings from patent US9206130B2, “Quinoline derivatives as AXL kinase inhibitors” (Max-Planck-Gesellschaft zur Förderung der Wissenschaften …, priority 2008, dated 2015) are described below.

The target of series [1] is T1, wild type AXL (wtAXL) receptor tyrosine kinase (Homo sapiens, UniProt P30530).
T1 construct: WtAXL cDNA was cloned into vector pLXSN(ESK) and transfected into Phoenix E packaging cells; expressed in transfected cells; host or cells: NIH3T3 N7 mouse fibroblasts, retrovirally infected (clone 22)
T1 sequence (P30530 26-894): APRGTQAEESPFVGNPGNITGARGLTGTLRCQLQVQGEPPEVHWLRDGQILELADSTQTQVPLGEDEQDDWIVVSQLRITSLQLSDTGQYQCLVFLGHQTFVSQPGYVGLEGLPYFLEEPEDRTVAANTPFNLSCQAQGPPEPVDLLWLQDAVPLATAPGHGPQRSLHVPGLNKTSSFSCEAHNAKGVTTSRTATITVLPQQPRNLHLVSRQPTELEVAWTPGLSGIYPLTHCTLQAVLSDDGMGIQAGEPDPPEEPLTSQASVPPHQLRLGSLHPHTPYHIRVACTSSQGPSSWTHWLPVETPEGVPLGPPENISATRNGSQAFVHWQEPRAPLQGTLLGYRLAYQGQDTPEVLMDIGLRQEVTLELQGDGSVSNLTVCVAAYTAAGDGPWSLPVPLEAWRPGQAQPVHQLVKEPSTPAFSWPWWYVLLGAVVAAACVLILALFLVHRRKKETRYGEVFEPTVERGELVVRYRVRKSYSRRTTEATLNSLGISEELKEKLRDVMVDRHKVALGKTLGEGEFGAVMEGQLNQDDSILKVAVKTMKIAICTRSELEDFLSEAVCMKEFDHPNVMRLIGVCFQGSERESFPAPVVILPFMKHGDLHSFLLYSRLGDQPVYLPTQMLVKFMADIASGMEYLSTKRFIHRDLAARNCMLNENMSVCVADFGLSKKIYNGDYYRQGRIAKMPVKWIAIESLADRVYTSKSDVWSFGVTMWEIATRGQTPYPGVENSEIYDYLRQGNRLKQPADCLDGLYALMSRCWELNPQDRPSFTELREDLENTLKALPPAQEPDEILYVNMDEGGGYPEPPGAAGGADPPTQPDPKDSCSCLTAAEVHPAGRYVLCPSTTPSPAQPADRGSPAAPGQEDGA
The experiment in a line: NIH-3T3-AXL cellular tyrosine kinase assay (inhibition of AXL phosphorylation). Format: cell-based. Conditions: AXL phosphorylation in NIH-3T3-AXL (clone 22) cells, serum-depleted, 2 h with compound, immunoprecipitation / anti-phosphotyrosine blot. The method, boiled down: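 Compound inhibition of AXL autophosphorylation was read by 4G10 immunoblot after anti-AXL immunoprecipitation from lysates. Cells: NIH3T3 lines stably carrying retroviral wild-type human AXL, treated 2 h with compound dilution series.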

By IC50 is commonly meant the point on the concentration scale where inhibition reaches its midpoint. A word on the melting point: it is the temperature of the solid-liquid transition. Compound `COc1cc2nccc(Oc3ccc(NS(=O)(=O)c4cc(Cl)cc(Cl)c4)c(F)c3)c2cc1OC` [Example A43, 3,5-Dichloro-N-[4-(6,7-dimethoxy-quinolin-4-yloxy)-2-fluoro-phenyl]-benzenesulfonamide] registered a melting point of 240 to 242 °C. Also, in series [1], the IC50 was < 1 µM.

Consider `Cc1cc(Oc2ccc(NS(=O)(=O)c3ccc(-c4cnco4)s3)cc2)c2cc(F)ccc2n1` [Example B19, 5-Oxazol-5-yl-thiophene-2-sulfonic acid [4-(6-fluoro-2-methyl-quinolin-4-yloxy)-phenyl]-amide], for which the melting point fell in the range of 164 to 166 °C. The IC50 in series [1] stood at 8 µM.

On to `COc1cc2c(Oc3ccc(NS(=O)(=O)c4ccccc4C#N)cc3F)ccnc2cc1OCCN1CCOCC1` [Example D27, 2-Cyano-N-{3-fluoro-4-[6-methoxy-7-(2-morpholin-4-yl-ethoxy)-quinolin-4-yloxy]-phenyl}-benzenesulfonamide], for which the melting point lay in the range of 193 to 196 °C. The IC50 in series [1] is 0.783 µM.

On to `COc1cc2nccc(Oc3ccc(NS(=O)(=O)c4cccc(OC(F)F)c4)c(F)c3)c2cc1OC` [Example A15, 3-Difluoromethoxy-N-[4-(6,7-dimethoxy-quinolin-4-yloxy)-2-fluoro-phenyl]-benzenesulfonamide], for which the melting point lay in the range of 238 to 239 °C. Moreover, in series [1], the IC50 came to 2.26 µM.

The compound `COc1cc2nccc(Oc3ccc(NS(=O)(=O)c4ccc(F)c(F)c4F)c(F)c3)c2cc1OC` [Example A20, N-[4-(6,7-Dimethoxy-quinolin-4-yloxy)-2-fluoro-phenyl]-2,3,4-trifluoro-benzenesulfonamide] registered a melting point of 188 to 190 °C. Besides, the IC50 in series [1] is 5.05 µM.

`COc1cc2c(Oc3ccc(NS(=O)(=O)c4ccccc4C#N)cc3F)ccnc2cc1OCCCN1CCCC(C)C1` (stereo not drawn) [Example D31, 2-Cyano-N-(3-fluoro-4-{6-methoxy-7-[3-(3-methyl-piperidin-1-yl)-propoxy]-quinolin-4-yloxy}-phenyl)-benzenesulfonamide] displayed a melting point of 131 to 132 °C. Moreover, the IC50 in series [1] stood at 0.323 µM.

Consider `COc1cc2nccc(Oc3ccc(NS(=O)(=O)c4ccc(C(F)(F)F)cc4Br)c(F)c3)c2cc1OC` [Example A45, 2-Bromo-N-[4-(6,7-dimethoxy-quinolin-4-yloxy)-2-fluoro-phenyl]-4-trifluoromethyl-benzenesulfonamide], for which the melting point lay in the range of 236 to 238 °C. The IC50 in series [1] was > 10 µM.

Regarding `COc1cc2nccc(Oc3ccc(NS(=O)(=O)c4ccc(Cl)cc4F)c(F)c3)c2cc1OC` [Example A13, 4-Chloro-N-[4-(6,7-dimethoxy-quinolin-4-yloxy)-2-fluoro-phenyl]-2-fluoro-benzenesulfonamide], the melting point fell in the range of 218 to 219 °C. In addition, the IC50 in series [1] was determined as 2.9 µM.

The compound `Cc1cc(Oc2ccc(NS(=O)(=O)c3cc(F)ccc3F)c(F)c2)c2cccc(C(F)(F)F)c2n1` [Example C11, 2,5-Difluoro-N-[2-fluoro-4-(2-methyl-8-trifluoromethyl-quinolin-4-yloxy)-phenyl]-benzenesulfonamide] came in with a melting point of 179 to 181 °C. Besides, in series [1], the 50% inhibitory concentration (IC50) is > 10 µM.

In turn, `COc1cc2c(Oc3ccc(NS(=O)(=O)c4cccc(-c5ccccc5)c4)cc3F)ccnc2cc1OCCN1CCOCC1` [Example D04, Biphenyl-3-sulfonic acid {3-fluoro-4-[6-methoxy-7-(2-morpholin-4-yl-ethoxy)-quinolin-4-yloxy]-phenyl}-amide] came in with a melting point of 103 to 104 °C. Also, the IC50 in series [1] was 0.32 µM.

`COc1cc2c(Oc3ccc(NS(=O)(=O)c4c(F)cccc4F)cc3F)ccnc2cc1OCCCN1CCCC(C)C1` (stereo not drawn) [Example D32, 2,6-Difluoro-N-(3-fluoro-4-{6-methoxy-7-[3-(3-methyl-piperidin-1-yl)-propoxy]-quinolin-4-yloxy}-phenyl)-benzenesulfonamide] gave a melting point of 117 to 119 °C. Further, in series [1], the IC50 is 0.042 µM.

Regarding `COc1cc2nccc(Oc3ccc(NS(=O)(=O)c4ccc(Cl)cc4F)cc3F)c2cc1OC` [Example A110, 4-Chloro-N-[4-(6,7-dimethoxy-quinolin-4-yloxy)-3-fluoro-phenyl]-2-fluoro-benzenesulfonamide], the melting point is 99 to 101 °C. The IC50 in series [1] was determined as 1.18 µM.

Consider `COc1cc2nccc(Oc3ccc(NS(=O)(=O)c4ccccc4Cl)c(F)c3)c2cc1OC` [Example A54, 2-Chloro-N-[4-(6,7-dimethoxy-quinolin-4-yloxy)-2-fluoro-phenyl]-benzenesulfonamide], for which the melting point lay in the range of 232 to 234 °C. Besides, in series [1], the IC50 was > 1 µM.

In the case of `COc1ccc(S(=O)(=O)Nc2ccc(Oc3ccnc4cc(OC)c(OC)cc34)cc2)cc1Br` [Example A74, 3-Bromo-N-[4-(6,7-dimethoxy-quinolin-4-yloxy)-phenyl]-4-methoxy-benzenesulfonamide], the melting point lay in the range of 211 to 212 °C. Also, the IC50 in series [1] was > 1 µM.

Turning to `COc1cc2nccc(Oc3ccc(NS(=O)(=O)c4ccc(OC)c5ccccc45)cc3F)c2cc1OC` [Example A135, 4-Methoxy-naphthalene-1-sulfonic acid [4-(6,7-dimethoxy-quinolin-4-yloxy)-3-fluoro-phenyl]-amide], the melting point was 145 to 147 °C. In addition, the IC50 in series [1] turned out to be 0.82 µM.

The compound `COc1cc2nccc(Oc3ccc(NS(=O)(=O)c4ccccc4OC(F)(F)F)cc3F)c2cc1OC` [Example A126, N-[4-(6,7-Dimethoxy-quinolin-4-yloxy)-3-fluoro-phenyl]-2-trifluoromethoxy-benzenesulfonamide] displayed a melting point of 203 to 204 °C. Moreover, the IC50 in series [1] turned out to be 0.13 µM.

On to `COc1cc2nccc(Oc3ccc(NS(=O)(=O)c4cccc(-c5ccccc5)c4)cc3C)c2cc1OC` [Example A75, Biphenyl-3-sulfonic acid [4-(6,7-dimethoxy-quinolin-4-yloxy)-3-methyl-phenyl]-amide], for which the melting point was in the range of 178 to 180 °C. For the same compound, the IC50 in series [1] is > 3 µM.

`COc1cc2nccc(Oc3ccc(NS(=O)(=O)c4ccc(C)c(F)c4)c(F)c3)c2cc1OC` [Example A6, N-[4-(6,7-Dimethoxy-quinolin-4-yloxy)-2-fluoro-phenyl]-3-fluoro-4-methyl-benzenesulfonamide] yielded a melting point of 211 to 212 °C. The IC50 in series [1] amounted to 4.3 µM.

Compound `COc1cc2nccc(Oc3ccc(NS(=O)(=O)c4cc(Cl)ccc4OC)cc3)c2cc1OC` [Example A68, 5-Chloro-N-[4-(6,7-dimethoxy-quinolin-4-yloxy)-phenyl]-2-methoxy-benzenesulfonamide] came in with a melting point of 255 to 257 °C. Also, in series [1], the IC50 is > 10 µM.

Turning to `Cc1cc(Oc2ccc(NS(=O)(=O)c3ccc(-c4ccccc4)cc3)c(F)c2)c2cccc(C(F)(F)F)c2n1` [Example C15], the melting point fell in the range of 215 to 217 °C. For the same compound, the IC50 in series [1] was > 10 µM.

Compound `COc1c(Cl)cc(Cl)cc1S(=O)(=O)Nc1ccc(Oc2cc(C)nc3ccc(F)cc23)cc1` [Example B11, 3,5-Dichloro-N-[4-(6-fluoro-2-methyl-quinolin-4-yloxy)-phenyl]-2-methoxy-benzenesulfonamide] yielded a melting point of 192 to 193 °C. The IC50 in series [1] was < 1 µM.
